pIC50: −log10 of the molar value.
Each molecule was assayed against T1, TGFβ R1 (Homo sapiens, UniProt P36897) (assay: TGFβ R1 autophosphorylation protocol (33P-ATP, phosphocellulose filter plate)). Details: 10 uM ATP, 170 nM TGFβ R1, 20 minutes at room temperature, read-out: IC50 for Kinase Inhibition.
T1 sequence (P36897 34-503): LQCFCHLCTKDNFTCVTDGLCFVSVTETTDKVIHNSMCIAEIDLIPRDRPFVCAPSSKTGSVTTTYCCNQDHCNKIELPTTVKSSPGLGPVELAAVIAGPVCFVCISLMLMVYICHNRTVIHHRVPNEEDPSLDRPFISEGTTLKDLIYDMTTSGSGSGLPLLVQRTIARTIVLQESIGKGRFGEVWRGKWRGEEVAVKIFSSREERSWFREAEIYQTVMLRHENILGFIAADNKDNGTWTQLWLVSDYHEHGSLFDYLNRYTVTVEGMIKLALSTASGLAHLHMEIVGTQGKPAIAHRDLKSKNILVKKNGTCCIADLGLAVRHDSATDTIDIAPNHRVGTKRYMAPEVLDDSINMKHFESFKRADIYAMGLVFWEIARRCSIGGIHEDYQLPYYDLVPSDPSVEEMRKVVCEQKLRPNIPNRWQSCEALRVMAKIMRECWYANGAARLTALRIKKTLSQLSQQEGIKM
Assay type: biochemical
In short: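 Incorporation of 33P from γ-33P-ATP (10 uM ATP final) into the kinase itself (170 nM) measured by phosphocellulose capture and scintillation counting. Incubation 20 min at room temperature in 20 mM MOPS pH 7 with […]; final DMSO ≤1%.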

Compound | pIC50
COc1cnc(-c2cc(Cl)ccc2F)nc1Nc1ccncc1C(=O)NCCNC(=O)COC1O[C@H](CO)[C@@H](O)[C@H](O)[C@H]1O (some centres unmarked) [Compound 145, 4-[2-(5-Chloro-2-fluoro-phenyl)-5-methoxy-pyrimidin-4-ylamino]-N-{2-[2-(3,4,5-trihydroxy-6-hydroxymethyl-tetrahydro-pyran-2-yloxy)-acetylamino]-ethyl)-nicotinamide] | 7.28
CC(C)c1cnc(-c2cc(Cl)ccc2F)nc1Nc1ccncc1C(=O)N[C@H](CO)[C@@H](C)O [Compound 84, 4-[2-(5-Chloro-2-fluoro-phenyl)-5-isopropyl-pyrimidin-4-ylamino]-N-(2-hydroxy-1-hydroxymethyl-propyl)-nicotinamide] | 5.76
CCOP(=O)(OCC)O[C@@H](C)CNC(=O)c1cnccc1Nc1nc(-c2cc(Cl)ccc2F)ncc1OC [Compound 121, Phosphoric acid 2-({4-[2-(5-chloro-2-fluoro-phenyl)-5-methoxy-pyrimidin-4-ylamino]-pyridine-3-carbonyl}-amino)-1-methyl-ethyl ester diethyl ester] | 5.24
COC[C@H]1OC(CCNCCCNC(=O)c2cnccc2Nc2nc(-c3cc(Cl)ccc3F)ncc2OC)[C@@H](OC)[C@@H](OC)[C@@H]1OC (some centres unmarked) [Compound 96, 4-[2-(5-Chloro-2-fluoro-phenyl)-5-methoxy-pyrimidin-4-ylamino]-N-(3-[2-(3,4,5-trimethoxy-6-methoxymethyl-tetrahydro-pyran-2-yl)-ethylamino]-propyl)-nicotinamide] | 7.15
COC[C@H]1OC(CCNCCCNC(=O)c2cnccc2Nc2nc(-c3cc(Cl)ccc3F)ncc2OC)[C@H](OC)[C@@H](OC)[C@@H]1OC (some centres unmarked) [Compound 124, 4-[2-(5-Chloro-2-fluoro-phenyl)-5-methoxy-pyrimidin-4-ylamino]-N-{3-[2-(3,4,5-trimethoxy-6-methoxymethyl-tetrahydro-pyran-2-yl)-ethylamino]-propyl}-nicotinamide] | 7.38
COc1cnc(-c2cc(Cl)ccc2F)nc1Nc1cc[n+]([O-])cc1C(=O)NC1CC1 [Compound 114, 4-[2-(5-Chloro-2-fluoro-phenyl)-5-methoxy-pyrimidin-4-ylamino]-N-cyclopropyl-1-oxy-nicotinamide] | 5.51

Second part, the molecule after the results:

pIC50 | Compound
7.40 | COc1cnc(-c2cc(Cl)ccc2F)nc1Nc1ccncc1C(=O)NCCCN1CC[C@@H](O)C1 [Compound 77, 4-[2-(5-Chloro-2-fluoro-phenyl)-5-methoxy-pyrimidin-4-ylamino]-N-[3-(3-hydroxy-pyrrolidin-1-yl)-propyl]-nicotinamide]
6.82 | CNC(=O)NCCCNC(=O)c1cnccc1Nc1nc(-c2cc(Cl)ccc2F)ncc1OC [Compound 74, 4-[2-(5-Chloro-2-fluoro-phenyl)-5-methoxy-pyrimidin-4-ylamino]-N-[3-(3-methyl-ureido)-propyl]-nicotinamide]
6.92 | COc1cnc(-c2cc(Cl)ccc2F)nc1Nc1ccncc1C(=O)NCCCN1CCCC1C(=O)N(C)C (centres unmarked) [Compound 81, 4-[2-(5-Chloro-2-fluoro-phenyl)-5-methoxy-pyrimidin-4-ylamino]-N-[3-(2-dimethylcarbamoyl-pyrrolidin-1-yl)-propyl]-nicotinamide]
7.40 | CCOC(=O)CNC(=O)c1cnccc1Nc1nc(-c2cc(Cl)ccc2F)ncc1OC [Compound 1, ({4-[2-(5-Chloro-2-fluoro-phenyl)-5-methoxy-pyrimidin-4-ylamino]pyridine-3-carbonyl}-amino)-acetic acid ethyl ester]
7.22 | COc1cnc(-c2cc(Cl)ccc2F)nc1Nc1ccncc1C(=O)NCCCN1CCCCC1C (centres unmarked) [Compound 12, 4-[2-(5-Chloro-2-fluoro-phenyl)-5-methoxy-pyrimidin-4-ylamino]-N-[3-(2-methyl-piperidin-1-yl)-propyl]-nicotinamide]
5.81 | CNC(=O)NCCNC(=O)c1cnccc1Nc1nc(-c2cc(Cl)ccc2F)ncc1OC [Compound 68, 4-[2-(5-chloro-2-fluoro-phenyl)-5-methoxy-pyrimidin-4-ylamino]-N-[2-(3-methyl-ureido)-ethyl]nicotinamide]
7.52 | COc1cnc(-c2cc(Cl)ccc2F)nc1Nc1ccncc1C(=O)NCCCN(C)C [Compound 7, 4-[2-(5-Chloro-2-fluoro-phenyl)-5-methoxy-pyrimidin-4-ylamino]-N-(3-dimethylamino-propyl)-nicotinamide]
7.00 | CNCCNC(=O)c1cnccc1Nc1nc(-c2cc(Cl)ccc2F)ncc1N1CCCC1 [Compound 22, 4-[2-(5-Chloro-2-fluoro-phenyl)-5-pyrrolidin-1-yl-pyrimidin-4-ylamino]-N-(2-methylamino-ethyl)-nicotinamide]
6.17 | COc1cnc(-c2cc(Cl)ccc2F)nc1Nc1ccncc1C(=O)NCC(F)F [Compound 36, 4-[2-(5-Chloro-2-fluoro-phenyl)-5-methoxy-pyrimidin-4-ylamino]-N-(2,2-difluoro-ethyl)-nicotinamide]
7.52 | COc1cnc(-c2cc(Cl)ccc2F)nc1Nc1ccncc1C(=O)NCCCN1CCCC1 [Compound 29]
6.96 | CCNC(=O)NCCCNC(=O)c1cnccc1Nc1nc(-c2cc(Cl)ccc2F)ncc1OC [Compound 75]

Same assay, conditions: 10 uM ATP, 170 nM TGFβ R1, room temperature 20 minutes, read-out: IC50 for Kinase Inhibition

Compound | pIC50
CC(C)c1cnc(-c2cc(Cl)ccc2F)nc1Nc1ccncc1C(=O)N[C@H]1CCC[C@@H]1O [Compound 247, 4-[2-(5-Chloro-2-fluoro-phenyl)-5-isopropyl-pyrimidin-4-ylamino]-N-(2-hydroxy-cyclopentyl)-nicotinamide] | 7.40
CC(C)c1cnc(-c2cc(Cl)ccc2F)nc1Nc1ccncc1C(=O)NC1CCN(C)CC1 [Compound 178, 4-[2-(5-Chloro-2-fluoro-phenyl)-5-isopropyl-pyrimidin-4-ylamino]-N-(1-methyl-piperidin-4-yl)-nicotinamide] | 8.52
CC(C)c1cnc(-c2cc(Cl)ccc2F)nc1Nc1ccncc1C(=O)NC1CCC[C@@H]1OCc1ccccc1 (stereo in doubt) [Compound 223, N-(2-Benzyloxy-cyclopentyl)-4-[2-(5-chloro-2-fluoro-phenyl)-5-isopropyl-pyrimidin-4-ylamino]-nicotinamide] | 5.15
CN1CCN(C(=O)c2cnccc2Nc2nc(-c3cc(Cl)ccc3F)ncc2C2CCCC2)CC1 [Compound 213, {4-[2-(5-Chloro-2-fluoro-phenyl)-5-cyclopentyl-pyrimidin-4-ylamino]-pyridin-3-yl}-(4-methyl-piperazin-1-yl)-methanone] | 4.89
COc1cnc(-c2cc(Cl)ccc2F)nc1Nc1ccncc1C(=O)C(=O)N(C)C [Compound 239, 2-{4-[2-(5-Chloro-2-fluoro-phenyl)-5-methoxy-pyrimidin-4-ylamino]-pyridin-3-yl]-N,N-dimethyl-2-oxo-acetamide] | 5.11
CC(C)c1cnc(-c2cc(Cl)ccc2F)nc1Nc1ccncc1C(=O)NC[C@H](C)OC(=O)[C@H](C)N [Compound 204, 2-Amino-propionic acid 2-({4-[2-(5-chloro-2-fluoro-phenyl)-5-isopropyl-pyrimidin-4-ylamino]-pyridine-3-carbonyl}-amino)-1-methyl-ethyl ester] | 7.60
CC(C)c1cnc(-c2cc(Cl)ccc2F)nc1Nc1ccncc1C(=O)N[C@@H]1CCC[C@H]1OCc1ccccc1 (stereo in doubt) [Compound 222, N-(2-Benzyloxy-cyclopentyl)-4-[2-(5-chloro-2-fluoro-phenyl)-5-isopropyl-pyrimidin-4-ylamino]-nicotinamide] | 5.11

Further lines, results first:

pIC50 | Compound
8.70 | CC(C)c1cnc(-c2cc(Cl)ccc2F)nc1Nc1ccncc1C(=O)NCCCN1CCC[C@H]1CO [Compound 164, 4-[2-(5-Chloro-2-fluoro-phenyl)-5-isopropyl-pyrimidin-4-ylamino]-N-[3-(2-hydroxymethyl-pyrrolidin-1-yl)-propyl]-nicotinamide]
7.92 | CNC(=O)[C@@H]1CCCCN1CCCNC(=O)c1cnccc1Nc1nc(-c2cc(Cl)ccc2F)ncc1C(C)C [Compound 184, 4-[2-(5-Chloro-2-fluoro-phenyl)-5-isopropyl-pyrimidin-4-ylamino]-N-[3-(2-methylcarbamoyl-piperidin-1-yl)-propyl}-nicotinamide]
7.62 | COc1cnc(-c2cc(Cl)ccc2F)nc1Nc1ccncc1C(=O)NCC(C)=O [Compound 168, 4-[2-(5-Chloro-2-fluoro-phenyl)-5-methoxy-pyrimidin-4-ylamino]-N-(2-oxo-propyl)-nicotinamide]
7.89 | CC(C)c1cnc(-c2cc(Cl)ccc2F)nc1Nc1ccncc1C(=O)NCCCN1C[C@H](O)C[C@H]1C(=O)N1CCCC1 [Compound 191, 4-[2-(5-Chloro-2-fluoro-phenyl)-5-isopropyl-pyrimidin-4-ylamino]-N-{3-[4-hydroxy-2-(pyrrolidine-1-carbonyl)-pyrrolidin-1-yl]-propyl}-nicotinamide]
8.05 | CC(C)c1cnc(-c2cc(Cl)ccc2F)nc1Nc1ccncc1C(=O)NCCCN1CCC[C@H]1C(=O)N1CCCC1 [Compound 190, 4-[2-(5-Chloro-2-fluoro-phenyl)-5-isopropyl-pyrimidin-4-ylamino]-N-{3-[2-(pyrrolidine-1-carbonyl)-pyrrolidine-1-yl]-propyl}-nicotinamide]

— patent publication US20060281763A1, “Carboxamide inhibitors of TGFbeta” (priority 2005, published 2006)
